Data taken from patent publication US20080287430A1, “Furan Compounds Useful As Ep1 Receptor Antagonists” (priority 2005, published 2008).
Where a name gives a salt, the structure may show the parent alone.

Columns and labels:
human EP1 receptor [1] = target: T1, human EP1 receptor (Homo sapiens, UniProt P34995); assay: Binding assay for the human prostanoid EP1 receptor (competition with [3H]-PGE2); settings: binding to human EP1 receptor, [3H]-PGE2 competition, CHO-K1 cell membranes; averages of a number of experiments; read-out: pIC50 value (converted)
T1 construct: expressed in transfected cells; host or cells: CHO-K1
T1 sequence (P34995 1-402): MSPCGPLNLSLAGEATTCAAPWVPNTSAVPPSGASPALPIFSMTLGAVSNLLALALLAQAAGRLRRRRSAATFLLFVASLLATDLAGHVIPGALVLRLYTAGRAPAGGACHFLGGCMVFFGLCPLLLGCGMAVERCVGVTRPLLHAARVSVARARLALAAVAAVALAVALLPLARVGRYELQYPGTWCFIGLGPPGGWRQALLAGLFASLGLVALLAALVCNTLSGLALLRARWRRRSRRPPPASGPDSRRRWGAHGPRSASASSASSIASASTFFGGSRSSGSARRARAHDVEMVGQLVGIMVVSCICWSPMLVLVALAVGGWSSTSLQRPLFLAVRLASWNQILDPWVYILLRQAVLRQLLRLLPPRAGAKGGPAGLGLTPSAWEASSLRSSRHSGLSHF
Procedure: Competition assay using [^3H]-PGE2.
Compound potencies are determined using a radioligand binding assay. In this assay compound potencies are determined from their ability to compete with tritiated prostaglandin E2 ([^3H]-PGE2) for binding to the human EP1 receptor.
This assay utilises Chinese hamster ovary-K1 (CHO-K1) cells into which a stable vector containing the EP1 cDNA has previously been transfected. Cells are cultured in suitable flasks containing culture medium such as DMEM:F-12 supplemented with 10% v/v foetal calf serum, 2 mM L-glutamine, 0.25 mg/ml geneticin, 10 μg/ml puromycin and 10 μM indomethacin.
Cells are detached from the culture flasks by incubation in calcium and magnesium free phosphate buffered saline containing 1 mM disodium ethylenediaminetetraacetic acid (Na2EDTA) and 10 μM indomethacin for 5 min. The cells are isolated by centrifugation at 250×g for 5 mins and suspended in an ice cold buffer such as 50 mM Tris, 1 mM Na2EDTA, 140 mM NaCl, 10 μM indomethacin (pH 7.4). The cells are homogenised using a Polytron tissue disrupter (2×10 s burst at full setting), centrifuged at 48,000×g for 20 mins and the pellet containing the membrane fraction is washed (optional) three times by suspension and centrifugation at 48,000×g for 20 mins. The final membrane pellet is suspended in an assay buffer such as 10 mM 2-[N-morpholino]ethanesulphonic acid, 1 mM Na2EDTA, 10 mM MgCl2 (pH 6). Aliquots are frozen at −80° C. until required.
For the binding assay the cell membranes, competing compounds and [^3H]-PGE2 (3 nM final assay concentration) are incubated in a final volume of 100 μl for 30 min at 30° C. All reagents are prepared in assay buffer. Reactions are terminated by rapid vacuum filtration over GF/B filters using a Brandell cell harvester. The filters are washed with ice cold assay buffer, dried and the radioactivity retained on the filters is measured by liquid scintillation counting in Packard TopCount scintillation counter.
The data are analysed using non linear curve fitting techniques to determine the concentration of compound producing 50% inhibition of specific binding (IC50).

human EP1 receptor [2] = target: T1, human EP1 receptor; assay: human EP1 calcium mobilisation assay; type: cell-based; settings: human EP1, PGE2-induced calcium mobilisation in CHO-K1 cells; free bases or sodium salts; averages of a number of experiments; read-out: functional pKi value (converted)
Summary of the method: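 CHO-K1 cells stably expressing human EP1, loaded with Fluo-4 after 24 h at 37° C; compounds added before PGE2 challenge. Inhibition of PGE2-induced [Ca2+]i rise read by FLIPR fluorescence; pIC50 from curve fitting of half-maximal inhibition.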

IC50 (human EP1 receptor [1]) [nM]	Ki (human EP1 receptor [2]) [nM]	Compound
≤ 10	< 1000	Clc1ccc(OCc2ccccc2)c(Cc2ccc(-c3nc4ccccc4[nH]3)o2)c1 [Example 99, 2-[5-({5-Chloro-2-[(phenylmethyl)oxy]phenyl}methyl)-2-furanyl]-1H-benzimidazole]
≤ 10	≤ 10	COc1nccc2[nH]c(-c3ccc(Cc4cc(Cl)ccc4OCC(C)C)o3)nc12 [Example 104, 2-[5-({5-Chloro-2-[(2-methylpropyl)oxy]-phenyl}methyl)-2-furanyl]-4-(methyloxy)-1H-imidazo[4,5-c]pyridine]
≤ 10	< 1000	COc1ccc2[nH]c(-c3ccc(Cc4cc(Cl)ccc4OCC(C)C)o3)nc2c1 [Example 105, 2-[5-({5-Chloro-2-[(2-methylpropyl)oxy]-phenyl}methyl)-2-furanyl]-5-(methyloxy)-1H-benzimidazole]
≤ 10	≤ 10	CC(C)COc1ccc(Cl)cc1Cc1ccc(-c2nc3nccnc3[nH]2)o1 [Example 106, 2-[5-({5-Chloro-2-[(2-methylpropyl)oxy]-phenyl}methyl)-2-furanyl]-1H-imidazo[4,5-b]pyrazine]
≤ 10	< 1000	CC(C)COc1ccc(Cl)cc1Cc1ccc(-c2nc3cc4cnn(C)c4cc3[nH]2)o1 [Example 107, 6-[5-({5-Chloro-2-[(2-methylpropyl)oxy]-phenyl}methyl)-2-furanyl]-1-methyl-1,5-dihydroimidazo[4,5-f]indazole]
≤ 10	< 1000	CC(C)COc1ccc(Cl)cc1Cc1ccc(-c2nc3c(F)cccc3[nH]2)o1 [Example 108, 2-[5-({5-Chloro-2-[(2-methylpropyl)oxy]-phenyl}methyl)-2-furanyl]-4-fluoro-1H-benzimidazole]
≤ 10	< 1000	CC(C)COc1ccc(Cl)cc1Cc1ccc(-c2nc3cc(N4CCN(C)CC4)ccc3[nH]2)o1 [Example 111, 2-[5-({5-Chloro-2-[(2-methylpropyl)oxy]-phenyl}methyl)-2-furanyl]-5-(4-methyl-1-piperazinyl)-1H-benzimidazoletrihydrochloride]
	< 1000	CC(C)COc1ccc(Cl)cc1Cc1ccc(-c2nc3cc(CN4CCCC4)cnc3[nH]2)o1 [Example 165, 2-[5-({5-Chloro-2-[(2-methylpropyl)oxy]-phenyl}methyl)-2-furanyl]-6-(1-pyrrolidinylmethyl)-1H-imidazo[4,5-b]pyridinedihydrochloride]
	≤ 10	CC(C)COc1ccc(Cl)cc1Cc1ccc(-c2ncc[nH]2)o1 [Example 167, 2-[5-({5-Chloro-2-[(2-methylpropyl)oxy]phenyl}methyl)-2-furanyl]-1H-imidazole]
	< 1000	CC(C)COc1ccc(Cl)cc1Cc1ccc(-c2cc[nH]n2)o1 [Example 168]
	< 1000	Clc1ccc(OCc2ccccc2)c(Cc2ccc(-c3nnc[nH]3)o2)c1 [Example 169, 3-[5-({5-Chloro-2-[(phenylmethyl)oxy]phenyl}methyl)-2-furanyl]-1H-1,2,4-triazole]

Further lines, the compound ahead of its results:

Compound	IC50 (human EP1 receptor [1]) [nM]	Ki (human EP1 receptor [2]) [nM]
O=C(O)c1ccc(Cc2cc(Cl)ccc2OCC2CC2)o1 [Example 3, Sodium 5-({5-chloro-2-[(cyclopropylmethyl)oxy]phenyl}methyl)-2-furancarboxylate]	≤ 10	< 1000
O=C(O)c1ccc(Cc2cc(Cl)ccc2OC2CCCC2)o1 [Example 5, Sodium 5-{[5-chloro-2-(cyclopentyloxy)phenyl]methyl}-2-furancarboxylate]	≤ 10	≤ 10
O=C(O)c1ccc(Cc2cc(Cl)ccc2OCC2CCCCC2)o1 [Example 6, Sodium 5-({5-chloro-2-[(cyclohexylmethyl)oxy]phenyl}methyl)-2-furancarboxylate]	≤ 10	< 1000
CCC(CC)COc1ccc(Cl)cc1Cc1ccc(C(=O)O)o1 [Example 7, Sodium 5-({5-chloro-2-[(2-ethylbutyl)oxy]phenyl}methyl)-2-furancarboxylate]	≤ 10	≤ 10
CC(C)COc1ccc(Cl)cc1Cc1ccc(C(=O)O)o1 [Example 10, Sodium 5-({5-chloro-2-[(2-methylpropyl)oxy]phenyl}methyl)-2-furancarboxylate]	≤ 10	< 1000
Cc1cc(C(=O)O)oc1Cc1cc(Cl)ccc1OCc1ccccc1 [Example 15, Sodium 5-({5-chloro-2-[(phenylmethyl)oxy]phenyl}methyl)-4-methyl-2-furancarboxylate]	≤ 10	≤ 10
O=C(O)c1ccc(Cc2cc(Cl)ccc2OCc2ccccc2)o1 [Example 18, Sodium 5-({5-chloro-2-[(phenylmethyl)oxy]phenyl}methyl)-2-furancarboxylate]	≤ 10	≤ 10
O=C(O)c1ccc(Cc2cc(Cl)ccc2OCc2ccc(F)cc2F)o1 [Example 19, Sodium 5-[(5-chloro-2-{[(2,4-difluorophenyl)methyl]oxy}phenyl)methyl]-2-furancarboxylate]	≤ 10	< 1000
O=C(O)c1ccc(Cc2cc(Cl)ccc2OCc2c(F)cc(F)cc2F)o1 [Example 20, Sodium 5-[(5-chloro-2-{[(2,4,6-trifluorophenyl)methyl]oxy}phenyl)methyl]-2-furancarboxylate]	≤ 10	< 1000
O=C(O)c1ccc(Cc2cc(Cl)ccc2OCc2ccc(F)cc2)o1 [Example 21, Sodium 5-[(5-chloro-2-{[(4-fluorophenyl)methyl]oxy}phenyl)methyl]-2-furancarboxylate]	≤ 10	≤ 10
O=C(O)c1ccc(Cc2cc(Cl)ccc2OCc2ccc(F)cc2Cl)o1 [Example 22, Sodium 5-[(5-chloro-2-{[(2-chloro-4-fluorophenyl)methyl]oxy}phenyl)methyl]-2-furancarboxylate]	≤ 10	≤ 10
O=C(O)c1ccc(Cc2cc(Cl)ccc2OCc2ccc(Cl)cc2F)o1 [Example 23, Sodium 5-[(5-chloro-2-{[(4-chloro-2-fluorophenyl)methyl]oxy}phenyl)methyl]-2-furancarboxylate]	≤ 10	≤ 10
O=C(O)c1ccc(Cc2cc(Cl)ccc2OCc2cc(F)c(F)cc2F)o1 [Example 25, Sodium 5-[(5-chloro-2-{[(2,4,5-trifluorophenyl)methyl]oxy}phenyl)methyl]-2-furancarboxylate]	≤ 10	≤ 10
O=C(NS(=O)(=O)c1ccccc1)c1ccc(Cc2cc(Cl)ccc2OCc2ccc(F)cc2F)o1 [Example 35, 5-[(5-Chloro-2-{[(2,4-difluorophenyl)methyl]oxy}phenyl)methyl]-N-(phenylsulfonyl)-2-furancarboxamide]	≤ 10	≤ 10
O=C(Nc1c(F)cccc1F)c1ccc(Cc2cc(Cl)ccc2OCc2ccc(F)cc2F)o1 [Example 36, 5-[(5-Chloro-2-{[(2,4-difluorophenyl)methyl]oxy}phenyl)methyl]-N-(2,6-difluorophenyl)-2-furancarboxamide]	≤ 10	≤ 10
CC(C)COc1ccc(Cl)cc1Cc1ccc(C(=O)NCc2ccccc2)o1 [Example 57, 5-({5-Chloro-2-[(2-methylpropyl)oxy]-phenyl}methyl)-N-(phenylmethyl)-2-furancarboxamide]	≤ 10	≤ 10
O=C(Nc1c(F)cccc1F)c1ccc(Cc2cc(Cl)ccc2OCc2ccc(Cl)cc2F)o1 [Example 84, 5-[(5-Chloro-2-{[(4-chloro-2-fluorophenyl)methyl]oxy}-phenyl)methyl]-N-(2,6-difluorophenyl)-2-furancarboxamide]	≤ 10	< 1000
CC(C)COc1ccc(Cl)cc1Cc1ccc(-c2nc3ccccc3[nH]2)o1 [Example 98, 2-[5-({5-Chloro-2-[(2-methylpropyl)oxy]phenyl}methyl)-2-furanyl]-1H-benzimidazole]	≤ 10	≤ 10
